# Molecular target: T1, α4 β1 integrin (VLA-4) (Homo sapiens, UniProt P05556+P13612)
# T1 construct: Jurkat cells (ATCC #TIB-153) which express high levels of α4 β1 integrin (VLA-4); host or cells: Jurkat cells
# Experiment: Monovalent FACS Assay for α4 β1 Integrin/VCAM-1 Binding (inhibition of soluble VCAM-1 binding to Jurkat cells)
# Conditions: not given
# Method: The foregoing compounds were tested for VLA-4 binding activity using the following monvalent FACS assay. The IC50 for a compound reflects 50% receptor occupancy.
# Monovalent FACS Assay for α4 β1 Integrin/VCAM-1 Binding
# The VLA-4 binding activity of exemplary compounds was measured by measuring the inhibition of the interaction of soluble VCAM-1 with Jurkat cells (ATCC #TIB-153) which express high levels of α4 β1 integrin (VLA-4) using a modification of the fluorescence activated cell sorter (FACS) assay described by Yednock, et al., J. Biol. Chem., 1995, 270:28740. VCAM-1 interacts with the cell surface in an α4 β1 integrin-dependent fashion.
# Jurkat cells were grown in RPMI 1640 supplemented with 10% fetal bovine serum, penicillin, streptomycin and glutamine as described by Yednock, supra.
# Recombinant soluble VCAM-1 (rsVCAM-1) was produced in a baculovirus expression system as a chimeric fusion protein containing the seven immunoglobulin domains of VCAM-1 on the N-terminus and the human IgG1 heavy chain constant region on the C-terminus as described by Yednock, supra. Supernatant containing approximately 10 ug/ml rsVCAM-1 was collected after 72 hours and used in the assay without purification.
# Jurkat cells (approximately 10^7 cells/ml) were treated with 1.5 mM MnCl2 and 5 μg/ml 15/7 for 30 minutes on ice to activate β1 integrin. Mn^+2 activates the receptor to enhance ligand binding, and 15/7 is a monoclonal antibody that recognizes an activated/ligand occupied conformation of α4 β1 integrin and locks the molecule into this conformation thereby stabilizing the VCAM-1/α4 β1 integrin interaction. Yednock, et al., supra. Antibodies similar to 15/7 have been prepared and may be used in this assay. For example, see, Luque, et al., 1996, J. Bio. Chem., 271: 11067.
# Aliquots of 25 μl cells were incubated for 30 minutes at room temperature with compounds using a standard 5-point serial dilution. 15 μl of rsVCAM-Fc-containing baculovirus supernatant was added to the cells and incubated for 30 minutes on ice as described in Yednock, et al., supra.
# Cells were washed twice and resuspended in 100 μl of a 1:100 dilution of FITC-conjugated goat anti-human IgG to detect the human Ig-VCAM-1 construct diluted in assay media containing 2.5% mouse serum to block potential cross-reactivity with cell surface bound 15/7. Cells were incubated on ice for 30 minutes in the dark. Cells were washed twice and analyzed with a standard FACS analysis as described in Yednock, et al., supra. on a FACScan flow cytometer (Becton Dickinson, Mountain View, Calif.).
# T1 sequence (P13612 34-1032): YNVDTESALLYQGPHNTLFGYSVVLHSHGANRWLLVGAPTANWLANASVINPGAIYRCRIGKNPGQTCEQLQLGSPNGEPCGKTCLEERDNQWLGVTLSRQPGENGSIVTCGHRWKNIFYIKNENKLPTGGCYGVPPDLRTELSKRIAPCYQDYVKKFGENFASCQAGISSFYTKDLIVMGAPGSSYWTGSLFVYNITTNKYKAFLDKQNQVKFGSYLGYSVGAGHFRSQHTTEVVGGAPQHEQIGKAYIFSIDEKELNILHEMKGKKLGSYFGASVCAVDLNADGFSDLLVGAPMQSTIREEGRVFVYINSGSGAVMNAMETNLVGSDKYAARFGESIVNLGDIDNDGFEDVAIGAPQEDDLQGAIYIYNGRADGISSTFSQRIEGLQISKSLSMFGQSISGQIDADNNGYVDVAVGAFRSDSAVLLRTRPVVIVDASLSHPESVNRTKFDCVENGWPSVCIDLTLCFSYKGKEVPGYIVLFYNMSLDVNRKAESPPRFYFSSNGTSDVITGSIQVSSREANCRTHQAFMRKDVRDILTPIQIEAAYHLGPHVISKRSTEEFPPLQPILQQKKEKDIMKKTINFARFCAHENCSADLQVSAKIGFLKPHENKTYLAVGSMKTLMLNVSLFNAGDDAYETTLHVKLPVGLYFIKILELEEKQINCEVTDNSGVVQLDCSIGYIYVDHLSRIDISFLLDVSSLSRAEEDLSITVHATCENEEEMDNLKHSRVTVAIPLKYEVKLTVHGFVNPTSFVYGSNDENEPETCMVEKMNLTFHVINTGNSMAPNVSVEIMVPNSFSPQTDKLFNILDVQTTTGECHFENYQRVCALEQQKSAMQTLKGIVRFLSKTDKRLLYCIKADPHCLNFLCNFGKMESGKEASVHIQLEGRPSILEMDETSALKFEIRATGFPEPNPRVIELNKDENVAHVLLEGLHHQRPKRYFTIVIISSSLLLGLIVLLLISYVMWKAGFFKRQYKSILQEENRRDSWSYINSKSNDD
# T1 sequence (P05556 21-798): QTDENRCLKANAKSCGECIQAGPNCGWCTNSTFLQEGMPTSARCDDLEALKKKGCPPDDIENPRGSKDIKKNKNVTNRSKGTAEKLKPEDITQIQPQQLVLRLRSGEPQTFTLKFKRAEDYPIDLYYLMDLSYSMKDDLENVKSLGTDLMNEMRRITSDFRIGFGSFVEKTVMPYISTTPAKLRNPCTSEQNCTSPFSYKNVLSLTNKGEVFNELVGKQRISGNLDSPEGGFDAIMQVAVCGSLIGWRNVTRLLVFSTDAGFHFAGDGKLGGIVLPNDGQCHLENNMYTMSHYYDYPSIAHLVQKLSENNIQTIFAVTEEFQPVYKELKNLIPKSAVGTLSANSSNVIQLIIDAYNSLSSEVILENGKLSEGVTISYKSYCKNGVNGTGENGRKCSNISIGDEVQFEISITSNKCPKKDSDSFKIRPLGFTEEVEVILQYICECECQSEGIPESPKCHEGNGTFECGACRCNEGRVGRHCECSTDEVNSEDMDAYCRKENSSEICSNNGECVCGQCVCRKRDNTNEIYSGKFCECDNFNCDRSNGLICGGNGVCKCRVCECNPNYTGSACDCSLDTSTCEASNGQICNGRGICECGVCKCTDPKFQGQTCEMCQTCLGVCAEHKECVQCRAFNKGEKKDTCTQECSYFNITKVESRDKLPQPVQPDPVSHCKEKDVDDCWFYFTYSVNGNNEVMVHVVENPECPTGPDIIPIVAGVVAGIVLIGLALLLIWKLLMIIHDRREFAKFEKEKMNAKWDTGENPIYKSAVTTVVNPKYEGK
row,SMILES,IC50
1,"CN1CCN(C(=O)Oc2ccc(C[C@H](Nc3c(N(C)CCc4ccncc4)c(=O)c3=O)C(=O)O)cc2)CC1 [Example 68, (2S)-3-[4-(4-methylpiperazinyl)carbamoyloxy-phenyl)-2-{2-[methyl-(2-pyridin-4-yl-ethyl)-amino]-3,4-dioxo-cyclobut-1-enylamino}-propionic acid]",1.3 nM
2,"CN1CCN(C(=O)Oc2ccc(C[C@H](Nc3c(N(C)CCc4ccccc4)c(=O)c3=O)C(=O)O)cc2)CC1 [Example 66, (2S)-3-[4-(4-methylpiperazinyl)carbamoyloxy-phenyl]-2-[2-(methyl-phenethyl-amino)-3,4-dioxo-cyclobut-1-enylamino]-propionic acid]",0.5 nM

# Same assay, conditions: Jurkat cells, rsVCAM-1; IC50 reflects 50% receptor occupancy; unit nM; read-out: IC50 (FACS)
row,SMILES,IC50
1,"CN(CCc1ccncc1)c1c(N[C@@H](Cc2ccc(NC(=O)c3ccncc3)cc2)C(=O)O)c(=O)c1=O [Example 35, N-[2-[Methyl[2-(4-pyridinyl)ethyl]amino]-3,4-dioxo-1-cyclobuten-1yl]-4-[(4-pyridinylcarbonyl)amino]-L-phenylalanine]",15 nM
2,"CN(C)C(=O)Oc1ccc(C[C@H](Nc2c(N(C)CCc3ccncc3)c(=O)c2=O)C(=O)O)cc1 [Example 63, (2S)-3-(4-Dimethylcarbamoyloxy-phenyl)-2-{2-[methyl-(2-pyridin-4-yl-ethyl)-amino]-3,4-dioxo-cyclobut-1-enylamino}-propionic acid]",1.6 nM
3,"CN(CCc1ccccc1)c1c(N[C@@H](Cc2ccc(NC(=O)c3ccncc3)cc2)C(=O)O)c(=O)c1=O [Example 37, N-[2-[Methyl(2-phenylethyl)amino]-3,4-dioxo-1-cyclobuten-1-yl]-4-[(4-pyridinylcarbonyl)amino]-L-phenylalanine]",2.2 nM
4,"CCCCCCN(CCCCCC)c1c(N[C@@H](Cc2ccc(NC(=O)c3ccncc3)cc2)C(=O)O)c(=O)c1=O [Example 39, N-[2-(Dihexylamino)-3,4-dioxo-1-cyclobuten-1-yl]-4-[(4-pyridinylcarbonyl)amino]-L-phenylalanine]",1.3 nM
5,"CCCCCCN(CCCCCC)c1c(N[C@@H](Cc2ccc(OCCCN(C)C)cc2)C(=O)O)c(=O)c1=O [Example 32, N-(2-Dihexylamino-3,4-dioxo-cyclobut-1-enylamino)-O-(3-dimethylamino-propyl)-L-tyrosine]",12 nM
6,"CCCCCCN(CCCCCC)c1c(N[C@@H](Cc2ccc(NC(=O)c3cccnc3)cc2)C(=O)O)c(=O)c1=O [Example 44, N-[2-(Dihexylamino)-3,4-dioxo-1-cyclobuten-1-yl]-4-[(3-pyridinylcarbonyl)amino]-L-phenylalanine]",6.5 nM
7,"CN(Cc1cccnc1)c1c(N[C@@H](Cc2ccc(NC(=O)c3ccncc3)cc2)C(=O)O)c(=O)c1=O [Example 41, N-[2-(Methyl-pyridin-3-ylmethyl-amino)-3,4-dioxo-cyclobut-1-enyl]-4-[(pyridine-4-carbonyl)-amino]-L-phenylalanine]",26 nM
8,CN(CCc1ccncc1)c1c(N[C@@H](Cc2ccc(NC(=O)c3cccnc3)cc2)C(=O)O)c(=O)c1=O [Example 46],40 nM
9,CN(C)C(=O)Oc1ccc(C[C@H](Nc2c(N(C)CCc3ccccc3)c(=O)c2=O)C(=O)O)cc1 [Example 57],0.9 nM
10,CCCCCCN(CCCCCC)c1c(N[C@@H](Cc2ccc(OC(=O)N3CCN(C)CC3)cc2)C(=O)O)c(=O)c1=O [Example 70],0.2 nM
11,"CCCCCCN(CCCCCC)c1c(N[C@@H](Cc2cn(Cc3ccccc3)cn2)C(=O)O)c(=O)c1=O [Example 29, (S)-3-(1-Benzyl-1H-imidazol-4-yl)-2-(2-dihexylamino-3,4-dioxo-cyclobut-1-enylamino)-propionic acid]",631 nM
12,CCCCCCN(CCCCCC)c1c(N[C@@H](Cc2ccc(NC(=O)C3CCN(C(=O)OCc4ccccc4)CC3)cc2)C(=O)O)c(=O)c1=O [Example 53],71 nM
13,"CN(C)C(=O)Oc1ccc(C[C@H](Nc2c(N(C)Cc3cccnc3)c(=O)c2=O)C(=O)O)cc1 [Example 61, (2S)-3-(4-Dimethylcarbamoyloxy-phenyl)-2-[2-(methyl-pyridin-3-ylmethyl-amino)-3,4-dioxo-cyclobut-1-enylamino]-propionic acid]",8.3 nM
14,"CN(Cc1cccnc1)c1c(N[C@@H](Cc2ccc(NC(=O)c3cccnc3)cc2)C(=O)O)c(=O)c1=O [Example 48, N-[2-(Methyl-pyridin-3-ylmethyl-amino)-3,4-dioxo-cyclobut-1-enyl]-4-[(pyridine-3-carbonyl)-amino]-L-phenylalanine]",160 nM
15,"CCCCCCN(CCCCCC)c1c(N[C@@H](Cc2ccc(OC(=O)N(C)C)cc2)C(=O)O)c(=O)c1=O [Example 59, (2S)-2-(2-Dihexylamino-3,4-dioxo-cyclobut-1-enylamino)-3-(4-dimethylcarbamoyloxy-phenyl)-propionic acid]",0.6 nM
16,"CCCCCCN(CCCCCC)c1c(N[C@@H](Cc2ccc(NC(=O)c3ccccc3)cc2)C(=O)O)c(=O)c1=O [Example 26, (S)-3-(4-Benzoylamino-phenyl)-2-(2-dihexylamino-3,4-dioxo-cyclobut-1-enylamino)-propionic acid]",150 nM

# Same assay, conditions: Jurkat cells, rsVCAM-1; IC50 reflects 50% receptor occupancy; unit μM; read-out: IC50 (FACS)
row,SMILES,IC50
1,"O=C(O)[C@H](Cc1ccccc1)Nc1c(NCc2ccccc2)c(=O)c1=O [Example 3, [2-(Benzylamino)-3,4-dioxo-cyclobut-1-enyl]-L-phenylalanine]",58000 nM
2,"CC(=O)N1CCN(c2c(N[C@@H](Cc3ccccc3)C(=O)O)c(=O)c2=O)CC1 [Example 23, (S)-2-[2-(4-Acetyl-piperazin-1-yl)-3,4-dioxo-cyclobut-1-enylamino]-3-phenyl-propionic acid]",40000 nM
3,"O=C(O)[C@H](Cc1ccccc1)Nc1c(N2CCN(c3ccccc3)CC2)c(=O)c1=O [Example 21, N-[3,4-Dioxo-2-(4-phenyl-piperazin-1-yl)-cyclobut-1-en-1-yl]-L-phenylalanine]",86000 nM
4,"CCCCCCN(Cc1ccccc1)c1c(N[C@@H](Cc2ccccc2)C(=O)O)c(=O)c1=O [Example 11, [2-(Benzyl-hexyl-amino)-3,4-dioxo-cyclobut-1-enyl]-L-phenylalanine]",4400 nM
5,"CCCCCCN(Cc1ccc2ccccc2c1)c1c(N[C@@H](Cc2ccccc2)C(=O)O)c(=O)c1=O [Example 17, (S)-2-[2-(Hexyl-naphthalen-2-ylmethyl-amino)-3,4-dioxo-cyclobut-1-enylamino]-3-phenyl-propionic acid]",36000 nM
6,"CCCCCCN(Cc1ccc(N(C)C)cc1)c1c(N[C@@H](Cc2ccccc2)C(=O)O)c(=O)c1=O [Example 19, (S)-2-{2-[(4-Dimethylamino-benzyl)-hexyl-amino]-3,4-dioxo-cyclobut-1-enylamino}-3-phenyl-propionic acid]",13000 nM
7,"CCCCCCN(CCCCCC)c1c(N[C@@H](Cc2ccccc2)C(=O)O)c(=O)c1=O [Example 15, (S)-2-(2-Dihexylamino-3,4-dioxo-cyclobut-1-enylamino)-3-phenyl-propionic acid]",1500 nM
8,"O=C(O)[C@H](Cc1ccccc1)Nc1c(NCCc2c[nH]c3ccccc23)c(=O)c1=O [Example 7, 2-{2-[2-(1H-Indol-3-yl)-ethylamino]-3,4-dioxo-cyclobut-1-enylamino}-L-phenylalanine]",52000 nM
9,"O=C(O)[C@H](Cc1ccccc1)Nc1c(NC(c2ccccc2)c2ccccc2)c(=O)c1=O [Example 5, [2-(benzhydrylamino)-3,4-dioxo-cyclobut-1-enyl]-L-phenylalanine]",101000 nM
10,"O=C(O)[C@H](Cc1ccccc1)Nc1c(NCc2cccnc2)c(=O)c1=O [Example 9, {3,4-Dioxo-2-[(pyridin-3-ylmethyl)-amino]-cyclobut-1-enyl}-L-phenylalanine]",116000 nM
11,"CN(CCc1ccncc1)c1c(N[C@@H](Cc2ccccc2)C(=O)O)c(=O)c1=O [Example 50, N-{2-[Methyl-(2-pyridin-4-yl-ethyl)-amino]-3,4-dioxo-cyclobut-1-enyl}-L-phenylalanine]",9000 nM
12,"O=C(O)[C@H](Cc1ccccc1)Nc1c(N(Cc2ccccc2)Cc2ccccc2)c(=O)c1=O [Example 13, (2-Dibenzylamino-3,4-dioxo-cyclobut-1-enylamino)-L-phenylalanine]",4400 nM
